{"source": "patent US20190350890A1", "about": "“COMPOSITION FOR PREVENTING OR TREATING HEPATITIS CONTAINING MONOACETYL DIACYLGLYCEROL COMPOUND” (ENZYCHEM LIFESCIENCES CORPORATION, priority 2016, published 2019)", "key": {"HL-60 cells [1]": {"system": "HL-60 cells", "assay": "WST assay, cytotoxicity in HL-60 cells", "type": "cell-based", "settings": "24 hours of incubation, PLAG 1,000 ug/mL or greater", "protocol": "(§1) FIG. 7 is a graph showing the results of WST assay of […] depending on the dose of PLAG when the composition of the present invention was administered, and FIG. 8 is a graph showing the inhibitory effect of IL-4-induced STAT6 activity and related signaling mechanism depending on the dose of PLAG when the composition of the present invention was administered. […] HepG2 and Hep3B were used as liver cells, and HL-60 was used as neutrophil cells. Cytotoxicity of EC-18 in liver cells and leukocytes was confirmed by WST assay. Survival of Hep3B and HL-60 cells was not affected during 24 hours of incubation with PLAG each having a concentration of 1,000 ug/mL or greater (see FIG. 7). Based on the results of the WST assay, 100, 10, and 1 ug/mL of PLAG were used for the cells. The activities of PKC-ξ/λ, JAK1 and STAT6 played an important role in ConA-induced hepatitis, and these kinases were increased by IL-4. […] Therefore, it can be seen that PLAG can effectively control IL-4-induced hepatitis by alleviating PKC-ξ/λ activity."}, "HL-60 cells [2]": {"system": "HL-60 cells", "assay": "Neutrophil adsorption analysis on fibronectin", "type": "cell-based", "settings": "100, 10, and 1 ug/mL of PLAG; 10 ng/ml of IL-4; WST-1 assay and cell number", "text": "In order to determine the effect of PLAG on neutrophil adsorption of fibronectin, 24-well tissue culture plates were coated with fibronectin as in previous studies (Wang Y H, Wang W Y, Liao J F, Chen C F, Hou Y C, Liou K T, Chou Y C, et al. Prevention of macrophage adhesion molecule-1 (Mac-1)-dependent neutrophil firm adhesion by taxifolin through impairment of protein kinase-dependent NADPH oxidase activation and antagonism of G protein-mediated calcium influx. Biochem Pharmacol 2004; 67:2251-2262.). The plates were incubated with 25 ug/ml of fibronectin at 37° C. for 2 hours. The unbounded protein was removed by washing, neutrophils were pre-treated with PLAG 2 hours before the experiment, and neutrophil activity was performed with IL-4 for 4 hours. Non-adsorbed neutrophils were eluted by aspiration and washed twice with PBS. Attached neutrophils were determined by calculating the number of cells at the bottom of each well using a homocytometer. The remaining adsorbed cells were stored in an incubator for 18 hours, at which time the cells were exposed to WST-1 reagent (Roche Applied Science) for spectrometric evaluation."}, "PKCθ": {"system": "PKCθ", "assay": "Western blot assay, phospho-PKC isotypes in HL-60 cells: PKCθ", "type": "cell-based", "settings": "IL-4 stimulation", "protocol": "(§2) HL-60 cells were plated in 12-well plates (1×10^6/well) and treated as described above. Total protein extracts were immunoblotted with phospho-PKC homologous proteins (δ, θ, ξ/λ, α/β) (Cell Signaling) and GAPDH Abs (Santa Cruz Biotechnology Inc., CA). Detection was performed using Immobilon Western Chemiluminescent HRP Substrate (Millipore Corporation, Billerica, Mass.)."}, "[3]": {"system": "hepatitis induced by concanavalin A", "assay": "Histological analysis of liver (hematoxylin-eosin, anti-neutrophil antibody staining)", "type": "in vivo, Balb/c mice", "protocol": "(§3) In order to confirm the preventive and therapeutic effects of hepatitis by 1-palmitoyl-2-linoleoyl-3-acetylglycerol (EC-18 or PLAG), the experiment was performed using an attenuation model of hepatitis induced by concanavalin A (hereinafter, referred to as ConA). As an experimental model, 10-week-old Balb/c mice (Koatech, Korea) were maintained under specific pathogen free (SPF) environment and used, and PLAG and PLG (ENZYCHEM Lifesciences, Korea) were prepared before or after in vivo or in vitro treatment. In addition, Hep3B, HepG2, EL-4 and HL-60 cell lines (American Type Culture Collection, ATCC) were incubated under 5% CO2 and a temperature of 37° C. The values in the comparison between groups performed in vivo were analyzed using one analysis method of the analysis of variance (ANOVA), and the values in the comparison of two experimental groups performed in vitro were analyzed using independent student's t test. Statistical significance was assumed to be p<0.05.\n(§4) Mice were randomly divided into three groups: control group, Con A-treated group, and PLAG-pretreated group. The Con A and PLAG were all dissolved in PBS (phosphate buffer saline) and used. PBS or PLAG was orally administered to the mice, and after 2 hours, 20 mg/kg BW of Con A was intravenously injected into each of the Con A-treated group and the PLAG-pretreated group. Thereafter, PLAG was orally administered to mice at a dose of 100 mg/kg BW. Here, BW means body weight.\nThe site of liver was collected from a mouse 8 hours after administration of Con A to the mouse of Example 1. The site of liver was fixed in 10% neutral buffered formalin, embedded in paraffin and cut to a thickness of 5 um. After removing the paraffin and rehydration, the flakes were stained with hematoxylin and eosin. In addition, for identification of neutrophils, the site of liver was stained with anti-mouse neutrophil antibody. All samples were evaluated histologically under a Leica (Leica, Wetzlar, Germany) optical microscope, and digital images were taken at ×200 magnification."}, "PKCδ": {"system": "PKCδ", "assay": "Western blot assay, phospho-PKC isotypes in HL-60 cells: PKCδ", "type": "cell-based", "settings": "IL-4 stimulation", "protocol": "as §2"}, "[4]": {"system": "hepatitis induced by concanavalin A", "assay": "Hematological analysis (CBC) of whole blood and liver samples", "type": "in vivo, Balb/c mice", "settings": "PLAG additionally administered", "protocol": "as §3, with “Statistical significance was assumed to be p<0.05.” left out\nWhole blood and liver samples were collected from the mice of Example 1 18 hours after administration of Con A. The cleaved liver collected from the mouse was homogenized as described in Experimental Example 1. Complete blood count (CBC) analysis included whole white blood cell quantification, part of neutrophils and lymphocytes of whole white blood cells, and hematology analysis was performed using Mindray BC 5300 (Shenzhen Mindray Bio-medical Electronics, China)."}, "[5]": {"system": "hepatitis induced by concanavalin A", "assay": "Liver tissue cytokine analysis (ELISA, RT-PCR) in Con A-induced hepatitis mice", "type": "in vivo, Balb/c mice", "protocol": "as §3, §4\n(§5) Blood samples were obtained from cardiac punctures 18 hours after administration of Con A in the mice of Example and centrifuged at 3,000 rpm for 10 minutes. For the measurement of cytokines in liver tissue ligate liquids, the animals were sacrificed and the liver was washed with PBS. The liver was homogenized and filtered using a 70 μm mesh cell strainer (BD Falcon cell strainer, BD Biosciences, Bedford, Mass.) in PBS. The supernatant was also collected by centrifugation at a rate of 2,000 rpm for 5 minutes. The lower cell pellet was resuspended in PBS and analyzed for complete blood cell count (CBC). Plasma samples and supernatants of liver lysate were maintained at minus 20° C. until cytokines were measured. The concentrations of IL-6, IL-10, IL-4, MIP-2 and IFNγ were detected using Set ELISA.\n(§6) Total RNA was isolated from the liver homogenate with TRIzol reagent (Incitrogen, Carlsbad, Calif.). HL-60 cells were plated in 12-well plates (1×10^6/well) and treated in the same manner as in Experimental Example 4. cDNA was synthesized from total cellular RNA using M-MLV reverse transcriptase and oligo-dT (Promega, Madison, Wis.).\n(§7) The amount of cDNA amplification of the reaction samples was confirmed by 2% agarose gel (Roche Applied Science, Salt Lake City, Utah) electrophoresis."}, "HL-60 cells [6]": {"system": "HL-60 cells", "assay": "RT-PCR analysis of IL-8 and VCAM-1 expression in IL-4-stimulated HL-60 cells", "type": "cell-based, human", "settings": "HL-60 cells stimulated by IL-4, RT-PCR, dose-dependent", "protocol": "as §6, §7"}, "[7]": {"system": "hepatitis induced by concanavalin A", "assay": "Plasma cytokine analysis (ELISA) in Con A-induced hepatitis mice", "type": "in vivo, Balb/c mice", "settings": "Con A 20 mg/kg BW i.v., PLAG oral 100 mg/kg BW, blood 18 hours after Con A", "protocol": "as §3, §4, §5"}, "Hep3B cells": {"system": "Hep3B cells", "assay": "WST assay, cytotoxicity in Hep3B cells", "type": "cell-based", "settings": "24 hours of incubation, PLAG 1,000 ug/mL or greater", "protocol": "as §1"}, "STAT6 [8]": {"system": "STAT6", "assay": "Western blot assay, IL-4-induced STAT6 phosphorylation in Hep3B cells", "type": "cell-based", "settings": "for phosphorylation of STAT6, comparison of PLAG and PLG: Hep3B cells, anti-phospho-STAT6 Western blot", "protocol": "(§8) Hep3B cells were plated in 12 well plates (2.5×10^5 cells/well) and treated with PLAG at various concentrations (0.1, 1, 10, 100 ug/mL), and after 2 hours, activated with IL-4 for 1 hour. Whole protein extracts were immunoblotted with phospho-STAT6, STAT6, phospho-JAK1 and phosphor-PKCξ/λ Abs (cell signaling)."}, "STAT6 [9]": {"system": "STAT6", "assay": "Luciferase reporter gene analysis, STAT6 transcriptional activity in HepG2 and Hep3B cells", "type": "cell-based", "settings": "10 and 100 ug/ml of PLAG; 10 ng/ml IL-4 for 6 hours", "protocol": "HepG2 and Hep3B cells were transfected into reporter luciferase plasmids containing four pairs of STAT6 binding sites (p4xSTAT6-Luc2P; Addgene, Cambridge, Mass.), and the reporter vector was transfected into the Attractene reagent and cell line. For the activity of STAT6 reporter vectors, 10 ng/ml of IL-4 was treated with cells for 6 hours, and the luciferase activity was measured by a luminometer using a luciferase assay system. The luciferase activity of each sample was normalized to those corresponding to the PLAG transduced samples."}, "PKCα/β": {"system": "PKCα/β", "assay": "Western blot assay, phospho-PKC isotypes in HL-60 cells: PKCα/β", "type": "cell-based", "settings": "IL-4 stimulation", "protocol": "as §2"}, "PKC-ξ/λ": {"system": "PKC-ξ/λ", "assay": "Western blot assay, IL-4-induced PKC phosphorylation", "type": "cell-based", "settings": "dose-dependent; 0.1, 1, 10, 100 ug/mL, 2 hours before IL-4 for 1 hour", "protocol": "as §8, §2"}, "[10]": {"settings": "ConA-administered mice, PLAG further administered, vs ConA group"}, "[11]": {"settings": "RT-PCR, ConA-induced liver tissue"}}}
{"molecule": "CCCCC/C=C\\C/C=C\\CCCCCCCC(=O)OC(COC(C)=O)COC(=O)CCCCCCCCCCCCCCC", "note": "(racemic) [PLAG, 1-palmitoyl-2-linoleoyl-3-acetyl-rac-glycerol]", "values": [{"measurement": "survival of HL-60 cells", "setting": "HL-60 cells [1]", "result": "not affected"}, {"measurement": "adsorption of HL-60 to coated fibronectin", "setting": "HL-60 cells [2]", "result": "significantly reduced"}, {"measurement": "relaxation of the activity of PKCθ", "setting": "PKCθ", "result": "affects the relaxation"}, {"measurement": "neutrophils in liver enhanced by stimulation with ConA", "setting": "[3]; anti-neutrophil antibody staining, liver 8 hours after Con A", "result": "effectively alleviated"}, {"measurement": "pathological changes of liver (hepatocyte damage, neutrophil infiltration, necrotic foci)", "setting": "[3]; hematoxylin-eosin staining, PLAG 100 mg/kg, 8 hours after ConA i.v.", "result": "markedly reduced"}, {"measurement": "liver cell damage", "setting": "[3]; liver 8 hours after Con A, immunohistological staining, vs ConA-treated liver tissue", "result": "hardly damaged"}, {"measurement": "relaxation of the activity of PKCδ", "setting": "PKCδ", "result": "affects the relaxation"}, {"measurement": "circulating neutrophils in blood", "setting": "[4]; CBC 18 hours after Con A", "result": "significantly increased"}, {"measurement": "number of neutrophils present in the liver", "setting": "[4]; CBC of liver homogenate 18 hours after Con A", "result": "significantly reduced"}, {"measurement": "expression of IL-4 (protein and mRNA) in liver tissue", "setting": "[5]; [10]", "result": "significantly reduced"}, {"measurement": "expression of MIP-2 (protein and mRNA) in liver tissue", "setting": "[5]; [10]", "result": "significantly reduced"}, {"measurement": "expression of CXCR4 mRNA in liver tissue", "setting": "[5]; [11]", "result": "down-regulates"}, {"measurement": "expression of adsorbed molecules ICAM-1 and VCAM in liver tissue", "setting": "[5]; [11]", "result": "does not affect"}, {"measurement": "expression of IL-8", "setting": "HL-60 cells [6]", "result": "effectively suppressed"}, {"measurement": "expression of VCAM-1", "setting": "HL-60 cells [6]", "result": "effectively suppressed"}, {"measurement": "IL-4 in mouse plasma", "setting": "[7]; vs Con A group", "result": "decreased"}, {"measurement": "IL-6 in mouse plasma", "setting": "[7]; vs Con A group", "result": "decreased"}, {"measurement": "IL-10 in mouse plasma", "setting": "[7]; vs Con A group", "result": "decreased"}, {"measurement": "MIP-2 in mouse plasma", "setting": "[7]; vs Con A group", "result": "decreased"}, {"measurement": "concentration of IFNγ in plasma", "setting": "[7]; vs mice not treated with PLAG", "result": "not significantly reduced"}, {"measurement": "survival of Hep3B cells", "setting": "Hep3B cells", "result": "not affected"}, {"measurement": "phosphorylation of STAT6, comparison of PLAG and PLG", "setting": "STAT6 [8]", "result": "significantly reduced"}, {"measurement": "phosphorylation of STAT6 induced by IL-4", "setting": "STAT6 [8]; dose-dependent, 0.1, 1, 10, 100 ug/mL, 2 hours before IL-4 for 1 hour", "result": "considerably alleviated"}, {"measurement": "STAT6 transcriptional activity", "setting": "STAT6 [9]", "result": "effectively prevented"}, {"measurement": "relaxation of PKCα/β activity", "setting": "PKCα/β", "result": "did not affect"}, {"measurement": "phosphorylation of PKC induced by IL-4", "setting": "PKC-ξ/λ", "result": "considerably alleviated"}]}
{"molecule": "CCCCC/C=C\\C/C=C\\CCCCCCCC(=O)OC(CO)COC(=O)CCCCCCCCCCCCCCC", "note": "(stereo not drawn) [PLG, reference compound]", "values": [{"measurement": "phosphorylation of STAT6, comparison of PLAG and PLG", "setting": "STAT6 [8]", "result": "not altered"}]}
